Measured values: article PMC10784557, “In silico and in vitro prediction of new synthesized N-heterocyclic compounds as anti-SARS-CoV-2” (Scientific Reports, 2024)
Values after ≈ are worked out from the molar mass of the structure shown.

Columns and labels:
[1] = tested on: SARS-CoV-2 (hCoV-19/Egypt/NRC-03/2020); test: Inhibitory concentration 50 (IC50) determination, virus-induced cytopathic effect, crystal violet; type: cell-based; settings: Severe acute respiratory syndrome coronavirus 2, Vero C1008; Vero-E6 cells infected with hCoV-19/Egypt/NRC-03/2020, 72 h
Description: In 96-well tissue culture plates, 2.4 × 10^4 Vero-E6 cells were distributed in each well and incubated overnight at a humidified 37 °C incubator under 5%CO2 condition. The cell monolayers were then washed once with 1 × PBS and subjected to virus adsorption (hCoV-19/Egypt/NRC-03/2020 (Accession Number on GSAID: EPI_ISL_430820)) for 1 h at room temperature (RT). More details were provided in Supplementary Information.
3.4.Inhibitory concentration 50 (IC50) determination
In 96-well tissue culture plates, 2.4×10^4 Vero-E6 cells were distributed in each well and incubated overnight at a humidified 37°C incubator under 5%CO2 condition. The cell monolayers were then washed once with 1x PBS and subjected to virus adsorption (hCoV-19/Egypt/NRC-03/2020 (Accession Number on GSAID: EPI_ISL_430820)) for 1 h at room temperature (RT). The cell monolayers were further overlaid with 100μl of DMEM containing varying concentrations of the test compounds. Following incubation at 37°C in 5% CO2 incubator for 72 h, the cells were fixed with 100 μl of 4% paraformaldehyde for 20 min and stained with 0.1% crystal violet in distilled water for 15 min at RT. The crystal violet dye was then dissolved using 100 μl absolute methanol per well and the optical density of the color is measured at 570 nm using Anthos Zenyth 200rt plate reader (Anthos Labtec Instruments, Heerhugowaard, Netherlands). The IC50 of the compound is that required to reduce the virus -induced cytopathic effect (CPE) by 50%, relative to the virus control.

in vitro = settings: African green monkey

SMILES | IC50 [1] [µg/mL] | CC50 at 24 h (in vitro) [µg/mL]
Clc1nc2ccccc2cc1C=Nc1nnc(-c2cccnc2)s1 [Compound 12, 1-(2-chloroquinolin-3-yl)-N-(5-(pyridin-3-yl)-1,3,4-thiadiazol-2-yl)methanimine] | 120 (≈ 341 µM) | 512 (≈ 1450 µM)
N=c1oc2ccccc2cc1-c1nnc(-c2cccnc2)o1 [Compound 5, 3-(5-(pyridin-3-yl)-1,3,4-oxadiazol-2-yl)-2H-chromen-2-imine] | 55 (≈ 189 µM) | 312 (≈ 1070 µM)
C(=Nc1nnc(-c2cccnc2)s1)c1c[nH]c2ccccc12 [Compound 11, 1-(1H-indol-3-yl)-N-(5-(pyridin-3-yl)-1,3,4-thiadiazol-2-yl)methanimine] | 216 (≈ 707 µM) | 552 (≈ 1810 µM)
